Laboratory results published in patent publication US6387948B1, “8-Acetylarteminolide and process for preparing same” (Korea Research Institute of Bioscience and Biotechnology, priority 2000, dated 2002).
≈ marks a conversion by molar mass, not a printed value. Where “and” joins values, the source holds several entries; their conditions need not be identical. Identical values can stand only once.

Key:
[1] = tested on: Angiogenesis; test: Angiogenesis-suppressing activity, chorioallantoic membrane(CAM) assay; assay type: in vivo; conditions: Gallus gallus; 10 μg/ml, CAM of fertilized chicken eggs
Description: Angiogenesis was determined in accordance with the chorioallantoic membrane(CAM) assay method described in Kusaka et al., Biochem. Biophy. Res. Comm., 174, 1070(1991), using fertilized chicken eggs.
A fertilized chicken egg(Pulmuwon co., Korea) was incubated at 37-38° C. and a humidity of more than 90%. Here, 0 day-embryo means that the fertilized egg had been stored at 18° C. for less than 4 days since laying.
The pointed end of the fertilized egg was scratched with a knife, laid horizontally, the scratched site was punctured with a 5 ml syringe and 2 ml of albumin was extracted from the fertilized egg. The puncture hole was then sealed with a glass-tape. The fertilized egg, positioned such that the sealed hole was at the bottom, was incubated under the same condition described above.
The end of the fertilized egg where the air sac is located, i.e., the end opposite to the hole site was opened, a window having a diameter of 2-3 cm was installed therein, the window was sealed with a glass-tape, and the incubation was resumed.
By this time, a CAM of 2-5 mm diameter had developed. 8-Acetylarteminolide was dissolved in ethanol to a concentration of 10 μg/ml, 10 μl of the solution was dropped on quartered Thermanox coverslip(Nunc, Co.,) and dried in a clean bench. […]
Angiogenesis suppressing activity was then calculated in accordance with the following equation: [formula]

[2] = target: T1, farnesyl-protein transferase(FPTase) (Rattus norvegicus, UniProt Q02293+Q04631); test: Farnesyl-protein transferase inhibiting activity, scintillation proximity assay (SPA); assay type: biochemical, white rat; conditions: rat cerebrum FPTase, 3H-FPP, biotin-lamin B peptide; read-out: concentration required for inhibiting farnesyl protein transferase by 50%(IC50) (converted)
T1 construct: the cerebrum of a white rat(male Sprague Dowley weighing 100-150 g) was washed with physiological saline solution and homogenized; from tissue; host or cells: rat cerebrum (male Sprague Dawley)
Description: Farnesyl-protein transferase(FPTase) activity was determined in accordance with the scintillation proximity assay(SPA) method of Blown et al. described in Cell, 62, 1(1990) by using ^3H-farnesyl pyrophosphate(^3H-FPP) as a substrate.
First, the cerebrum of a white rat(male Sprague Dowley weighing 100-150 g) was washed with physiological saline solution and homogenized. The homogenized solution was centrifuged and partially purified by using Q sepharose fast flow column(Pharmacia, co.) to obtain famnesyl protein transferase(FPTase).
10 μl of 8-acetylarteminolide, 40 μl of FPTase obtained above, 10 μl of an assay buffer(50 mM Tris-HCl, pH 7.5, 25 mM MgCl2, 2 mM KCl, 5 mM DTT, 5 mM Na2HPO4, 0.01% Triton X-100), 20 μl of diluted ^3H-FPP and 20 μl of biotin-lamin B peptide were mixed together and the resulting mixture was reacted at room temperature for 30 minutes. 150 μl of SPA bead/stop reagent solution(Amersham, Inc. UK) was added to the mixture and the enzymatic activity was determined by examining the extent of biotin-lamin B peptide farneslyation, expressed by unit of count per minute(CPM), with a liquid scintillation counter.
The FPTase inhibiting activity was then calculated in accordance with the following equation: [formula] […]

[3] = tested on: Human breast cancer cell line MCF-7; test: Cell-cycle inhibiting activity, propidium iodide FACS analysis; assay type: cell-based; conditions: for % of cells G0/G1 phase / % of cells G2/M phase / % of cells S phase: 7.5 μl of 5 mg/ml DMSO solution in 7.5 ml medium
Description: Human breast cancer cell line MCF-7(ATCC HTB-22) was divided into 7.5 ml portions of RPMI1640 culture medium(GIBCO BRL) kept in T25 flasks and incubated at 37° C. under an atmosphere containing 5% CO2 for 12 hours. Added to the cell cultures of one group of flasks was 7.5 μl of DMSO solution containing 5 mg/ml of 8-acetylarteminolide obtained in Example 1, while 7.5 μl of pure DMSO was added to the cultures of another group of flasks as a control, followed by incubation at 37° C. under an atmosphere containing 5% CO2 for 12, 24 and 36 hours, respectively.
To examine the activity of inventive compound in inhibiting the progression of the cell cycle, each of the cultures was treated with trypsin and centrifuged at 200×g for 5 minutes, and then, the cell precipitate was washed twice with cold PBS. 3 ml of 70% ethanol was added thereto and the resulting mixture was left standing at −20° C. for 12 hours to fix the cell. The resulting mixture was centrifuged at 200×g for 5 minutes and the cell precipitate was washed twice with PBS to remove remaining ethanol. Added to the cell precipitate in sequence were 1 ml of PBS and 50 μl RNase A solution(100 μg/ml). The mixture was reacted at 37° C. for 30 minutes and 10 μl of PBS containing 1 mg/ml of propidium iodide was added thereto.
The cell cycles of 20,000 stained cells were analyzed by using Becton-Dickinson FACS Calibur and Becton-Dickinson Modifit cell-cycle analysis program.

[4] = Solubility (physicochemical properties)
[5] = tested on: Human breast cancer cell line MCF-7; test: Cell-cycle inhibiting activity, propidium iodide FACS analysis; assay type: cell-based; conditions: MCF7, G2 to M phase progression, read-out: concentration required for inhibiting the progression of the cell cycle by 50%

- IC50 [2]: ~1820 nM and ~1800 nM and 1820 nM and 1800 nM
- Solubility Insoluble: ([4]; solvents in which insoluble): hexane, H2O
- Solubility Soluble: ([4]; solvents in which soluble): alcohol, acetone, chloroform, DMSO
- IC50 [5]: ~5 µg/mL (≈ 9.11 µM)
Structure (SMILES): C=C1C(=O)OC2C1CCC(C)(O)C13C=CC(C)(C21)C1(C3)C(=O)OC2C3C(C)=CC(=O)C3=C(C)CC(OC(C)=O)C21 (stereo not shown) [8-acetylarteminolide]
- inhibition at 10 µg/mL [1]: 60%
- % of cells G0/G1 phase ([3]; MCF-7, 12 hours): 47.59%
- % of cells G2/M phase ([3]; MCF-7, 12 hours): 18.06%
- % of cells S phase ([3]; MCF-7, 12 hours): 34.35%
- percentage of cells in the G2/M phase compared to the control cells ([3]; MCF-7, 24 hours): 10 fold
- % of cells G0/G1 phase ([3]; MCF-7, 24 hours): 47.49%
- % of cells G2/M phase ([3]; MCF-7, 24 hours): 27.97%
- % of cells S phase ([3]; MCF-7, 24 hours): 24.54%
- percentage of cells in the G2/M phase compared to the control cells ([3]; MCF-7, 36 hours): two-fold higher
- % of cells G0/G1 phase ([3]; MCF-7, 36 hours): 73.2%
- % of cells G2/M phase ([3]; MCF-7, 36 hours): 19.79%
- % of cells S phase ([3]; MCF-7, 36 hours): 7.01%
